Values of other authors as cited in patent US20250222021A1, “METHOD OF TREATING ACID-BASE DISORDERS” (Renosis, Inc., priority 2017, published 2025).

Test system: adult patients with CKD and serum bicarbonate 16 to 20 mmol/L
Settings: 2 years

Structure (SMILES): O=C([O-])O.[Na+] [sodium bicarbonate]
- Patients who developed ESRD: 6.5%
- Patients with rapid progression (rapid decline of CrCl >3 ml/min per 1.73 m^2/yr): 9%
- Relative risk of ESRD versus control: 0.13
- Relative risk of rapid progression versus control: 0.15
- Decrease in creatinine clearance (CrCl) (average 1.82 g/day bicarbonate): 1.88 ml/min per 1.73 m^2
